Structures can show the parent of a compound that is named as a salt.
Experiments:
human beta1-adrenoceptor = target: T1, human beta1-adrenoceptor (Homo sapiens, UniProt P08588); experiment: 3H-CGP12177 whole-cell binding, beta1; settings: for Kd / Beta 1 Log KD: 3H-CGP 12177 whole cell binding, CHO cells expressing human beta1-adrenoceptor, logarithmic value; for Kd: read-out: Beta 1 Log KD (converted); for Beta 1-Beta 2 Log KD (selectivity): difference of Log KD beta1 and beta2, 1 = 10-fold, 2 = 100-fold, 3 = 1000-fold selectivity
T1 construct: expressed in transfected cells; host or cells: CHO cells
Procedure: (§1) Selectivity of ligands for the three beta-adrenoceptors was assessed by whole-cell binding studies using ^3H-CGP12177 in CHO cells expressing the human beta1, beta2 or beta3-adrenoceptors respectively essentially as described by Baker (2005; Br. J Pharmacol: 144, 317-22) Values shown are KD values determined as described by Baker (2005). KD represents the concentration of compound required to occupy 50% of the receptors in cells or tissues.
(§2) The selectivity of a ligand is given by the ratio of beta-1 to beta-2 KD. Accordingly a difference of one in the logarithmic values thereof represents a 10-fold selectivity, a difference of 2 represents 100-fold selectivity and a difference of 3 represents 1000-fold selectivity etc.

human beta2-adrenoceptor = target: T2, human beta2-adrenoceptor (Homo sapiens, UniProt P07550); experiment: 3H-CGP12177 whole-cell binding, beta2; settings: 3H-CGP 12177 whole cell binding, CHO cells expressing human beta2-adrenoceptor, logarithmic value; for Kd: read-out: Beta 2 Log KD (converted)
T2 construct: expressed in transfected cells; host or cells: CHO cells
Procedure: as §1, §2

β1-adrenoceptor = β1-adrenoceptor (Homo sapiens, UniProt P08588); settings: background statement on known compounds; cited from earlier work
Chain of β1-adrenoceptor (P08588 whole entry, species assumed): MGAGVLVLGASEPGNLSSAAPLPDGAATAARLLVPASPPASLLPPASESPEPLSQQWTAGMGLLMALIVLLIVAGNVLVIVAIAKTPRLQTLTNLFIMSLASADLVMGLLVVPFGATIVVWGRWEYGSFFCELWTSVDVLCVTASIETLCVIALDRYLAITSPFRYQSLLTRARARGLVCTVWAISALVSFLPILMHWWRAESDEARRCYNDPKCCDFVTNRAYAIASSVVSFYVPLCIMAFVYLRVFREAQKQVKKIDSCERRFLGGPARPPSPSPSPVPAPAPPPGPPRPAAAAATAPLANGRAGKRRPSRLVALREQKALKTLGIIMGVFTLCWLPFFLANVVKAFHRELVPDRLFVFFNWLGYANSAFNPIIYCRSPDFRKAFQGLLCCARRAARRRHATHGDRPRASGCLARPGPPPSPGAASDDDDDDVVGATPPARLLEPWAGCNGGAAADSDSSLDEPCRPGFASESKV

T2 sequence (P07550 whole entry): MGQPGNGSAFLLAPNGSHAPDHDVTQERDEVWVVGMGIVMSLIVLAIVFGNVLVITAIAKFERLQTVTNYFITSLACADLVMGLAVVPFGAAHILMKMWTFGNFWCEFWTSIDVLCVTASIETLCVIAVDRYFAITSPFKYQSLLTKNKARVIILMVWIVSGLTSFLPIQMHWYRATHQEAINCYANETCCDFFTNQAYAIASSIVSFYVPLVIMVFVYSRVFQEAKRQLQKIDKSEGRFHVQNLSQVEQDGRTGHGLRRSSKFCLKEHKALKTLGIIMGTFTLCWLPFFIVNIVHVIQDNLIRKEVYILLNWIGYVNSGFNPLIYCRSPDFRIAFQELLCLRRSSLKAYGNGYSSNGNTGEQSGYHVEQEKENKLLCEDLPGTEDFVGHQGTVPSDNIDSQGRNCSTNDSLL
T1 sequence (P08588 whole entry): as the sequence (P08588 whole entry, species assumed) above

| SMILES | melting point | Kd (human beta1-adrenoceptor) | Beta 1-Beta 2 Log KD (selectivity) (human beta1-adrenoceptor) | Kd (human beta2-adrenoceptor) | Beta 1 Log KD (human beta1-adrenoceptor) | Beta 2 Log KD (human beta2-adrenoceptor) | β1-selectivity (β1-adrenoceptor) |
| --- | --- | --- | --- | --- | --- | --- | --- |
| NC(=O)c1ccc(OCCNC[C@H](O)COc2ccc(CCCN3CCC(F)(F)CC3)cc2)cc1 (as salt: hydrochloride) [Example 41, (S)-4-(2-(3-(4-(3-(4,4-difluoropiperidin-1-yl)propyl)phenoxy)-2-hydroxypropyl)amino)-ethoxy)benzamide dihydrochloride] | 234 to 235 °C |  |  |  |  |  |  |
| COc1ccc(OCCNCC(O)COc2ccc(OCCOC3CCCC3)cc2)cc1 (racemic) [Example 3] |  | 7.41 nM | 2.01 | 759 nM |  |  |  |
| NC(=O)c1ccc(OCCNCC(O)COc2ccc(OCCOC3CCCC3)cc2)cc1 (centres unmarked) [Example 1] |  |  | 2.40 |  |  |  |  |
| CN(C)C(=O)c1ccc(OCCNC[C@H](O)COc2ccc(OCCOC3CCCC3)cc2)cc1 [Example 6] | 73 to 75 °C | 11.5 nM | 1.96 | 1050 nM |  |  |  |
| NC(=O)c1ccc(OCCNC[C@H](O)COc2ccc(CCCOCC3CC3)cc2)cc1 [Example 8] | 132 to 135 °C | 2.88 nM | 2.66 | 1320 nM |  |  |  |
| NC(=O)c1ccc(OCCNC[C@H](O)COc2ccc(CCCOC3CCCC3)cc2)cc1 [Example 9] | 120 to 122 °C | 0.912 nM | 2.59 | 355 nM |  |  |  |
| NC(=O)c1ccc(OCCNC[C@H](O)COc2ccc3c(c2)OC[C@@H](COCC2CC2)O3)cc1 [Example 11] | 136 to 138 °C | 23.4 nM | 2.64 | 10200 nM |  |  |  |
| O[C@@H](CNCCOc1ccc2ncccc2c1)COc1ccc(CCCOCC2CC2)cc1 [Example 12] | 128 to 130 °C | 0.832 nM | 2.22 | 138 nM |  |  |  |
| CC(=O)Nc1ccc(OCCNC[C@H](O)COc2ccc(CCCOCC3CC3)cc2)cc1 [Example 13] |  |  | 2.3 |  | −8.83 | −6.53 |  |
| O[C@@H](CNCCOc1ccc2ncccc2c1)COc1ccc2c(c1)OC[C@@H](COCC1CC1)O2 [Example 14] |  | 4.17 nM | 2.48 | 1260 nM |  |  |  |
| CC(=O)Nc1ccc(OCCNC[C@H](O)COc2ccc3c(c2)OC[C@@H](COCC2CC2)O3)cc1 [Example 15] | 123 to 125 °C | 7.59 nM | 2.76 | 4370 nM |  |  |  |
| NC(=O)c1ccc(OCCNC[C@H](O)COc2ccc3c(c2)OC[C@@H](COC2CCCC2)O3)cc1 [Example 16] | 134 to 136 °C | 6.17 nM | 2.91 | 5010 nM |  |  |  |
| O=C1NCc2cc(OCCNC[C@H](O)COc3ccc4c(c3)OC[C@@H](COCC3CC3)O4)ccc21 [Example 18] |  | 4.57 nM | 3.01 | 4680 nM |  |  |  |
| NC(=O)c1ccc(OCCNC[C@H](O)COc2ccc(CCOCC3CC3)cc2)cc1 [Example 20] |  |  | 2.28 |  | −8.99 | −6.71 |  |
| O[C@@H](CNCCOc1ccc2nccnc2c1)COc1ccc(CCCOCC2CC2)cc1 [Example 21] |  | 2.75 nM | 2.19 | 427 nM |  |  |  |
| O=c1[nH]c2ccc(OCCNC[C@H](O)COc3ccc(CCCOCC4CC4)cc3)cc2[nH]1 [Example 22] | 183 to 185 °C | 8.32 nM | 2.23 | 1410 nM |  |  |  |
| O=C1NCc2cc(OCCNC[C@H](O)COc3ccc4c(c3)OC[C@@H](COc3ccc(F)cc3)O4)ccc21 [Example 25] |  | 0.794 nM | 2.64 | 347 nM |  |  |  |
| O=C1NCc2cc(OCCNC[C@H](O)COc3ccc4c(c3)OC[C@H](COc3ccc(F)cc3)O4)ccc21 [Example 26] | 161 to 164 °C | 4.17 nM | 2.78 | 2510 nM |  |  |  |

| SMILES | melting point | Kd (human beta1-adrenoceptor) | Beta 1-Beta 2 Log KD (selectivity) (human beta1-adrenoceptor) | Kd (human beta2-adrenoceptor) | Beta 1 Log KD (human beta1-adrenoceptor) | Beta 2 Log KD (human beta2-adrenoceptor) | β1-selectivity (β1-adrenoceptor) |
| --- | --- | --- | --- | --- | --- | --- | --- |
| NC(=O)c1ccc(OCCNC[C@H](O)COc2ccc3cc(COCC4CC4)ccc3c2)cc1 [Example 28] | 148 to 150 °C | 117 nM | <2.93 | > 100000 nM |  |  |  |
| O=C1NCc2cc(OCCNC[C@H](O)COc3ccc4cc(OCC5CC5)ccc4c3)ccc21 [Example 29] | 194 to 196 °C | 79.4 nM | <3.10 | > 100000 nM |  |  |  |
| O=C1NCc2cc(OCCNC[C@H](O)COc3ccc4c(c3)OC[C@@H](COc3ccncc3)O4)ccc21 [Example 30] | 192 to 194 °C | 57.5 nM | 3.10 | 72400 nM |  |  |  |
| O=C1NCc2cc(OCCNC[C@H](O)COc3ccc4c(c3)OC[C@@H](COc3cccc(F)c3)O4)ccc21 [Example 33] |  | 2.82 nM | 2.85 | 2000 nM |  |  |  |
| O=C1NCc2cc(OCCNC[C@H](O)COc3ccc4c(c3)OC[C@@H](COc3ccc(OC(F)(F)F)cc3)O4)ccc21 [Example 34] | 188 to 189 °C | 3.39 nM | 3.37 | 7760 nM |  |  |  |
| O=C1NCc2cc(OCCNC[C@H](O)COc3ccc4c(c3)OC[C@@H](COc3ccccc3F)O4)ccc21 [Example 35] |  |  | 3.70 |  | −8.68 | −4.98 |  |
| COc1c(F)cc(OC[C@@H]2COc3cc(OC[C@@H](O)CNCCOc4ccc5c(c4)CNC5=O)ccc3O2)cc1F [Example 37] | 182 to 184 °C | 2.69 nM | 3.37 | 6310 nM |  |  |  |
| O=C1NCc2cc(OCCNC[C@H](O)COc3ccc4c(c3)OC[C@@H](COc3c(F)cccc3F)O4)ccc21 [Example 38] |  |  | 3.34 |  | −8.54 | −5.20 |  |
| Cc1ccccc1OC[C@@H]1COc2cc(OC[C@@H](O)CNCCOc3ccc4c(c3)CNC4=O)ccc2O1 [Example 39] | 146 to 148 °C | 1.07 nM | 2.91 | 871 nM |  |  |  |
| COc1ccc(OCC2COc3cc(OCC(O)CNCCOc4ccc5c(c4)CNC5=O)ccc3O2)c(F)c1 (centres unmarked) [Example 40] | 145 to 147 °C | 3.24 nM | 2.70 | 1620 nM |  |  |  |
| NC(=O)c1ccc(OCCNC[C@H](O)COc2ccc(CCCN3CCC(F)(F)CC3)cc2)cc1 [Example 41, (S)-4-(2-(3-(4-(3-(4,4-difluoropiperidin-1-yl)propyl)phenoxy)-2-hydroxypropyl)amino)-ethoxy)benzamide dihydrochloride] |  | 1.82 nM | 2.87 | 1350 nM |  |  |  |
| O=C1NCc2cc(OCCNC[C@H](O)COc3ccc(CCCN4CCC(F)(F)CC4)cc3)ccc21 [Example 42] | 132 to 133 °C | 1.95 nM | 2.32 | 407 nM |  |  |  |
| O=C1NCc2cc(OCCNC[C@H](O)COc3ccc4c(c3)OC[C@@H](CN3CCC(F)(F)CC3)O4)ccc21 [Example 43, 5-(2-((S)-3-((R)-2-((4,4-difluoropiperidin-1-yl)methyl)-2,3-dihydrobenzo[b][1,4]-dioxin-6-yloxy)-2-hydroxypropylamino)ethoxy)isoindolin-1-one] | 134 to 135 °C | 4.27 nM | 2.81 | 2750 nM |  |  |  |
| CC1(C)COc2cc(OC[C@@H](O)CNCCOc3ccc(C(N)=O)cc3)ccc2O1 [Example 44, (S)-4-(2-(3-(2,2-dimethyl-2,3-dihydrobenzo[b][1,4]dioxin-6-yloxy)-2-hydroxypropyl-amino)ethoxy)benzamide] | 101 to 103 °C | 316 nM | <2.50 | > 100000 nM |  |  |  |
| O=C1NCc2cc(OCCNC[C@H](O)COc3ccc(CCCOC4CC4)cc3)ccc21 [Example 45] |  |  | 2.65 |  | −9.17 | −6.52 |  |
| NC(=O)c1ccc(OCCNC[C@H](O)COc2ccc(CCCOC3CC3)cc2)cc1 [Example 46] |  |  | 2.57 |  | −8.67 | −6.10 |  |
| CCOCCOc1ccc(OC[C@@H](O)CNCCc2ccc(OC)c(OC)c2)cc1 [Example D-140S] |  |  |  |  |  |  | 4,400 fold |
| N#Cc1cc(OCCOCC2CC2)ccc1OCC(O)CNCCNC(=O)Nc1ccc(O)cc1 (centres unmarked) [LK-204545] |  |  |  |  |  |  | 1,778 fold |

Source: patent US20140094493A1, “Novel Ether Linked Compounds and Improved Treatments for Cardiac and Cardiovascular Disease” (priority 2011, published 2014)
